One assay relates to LEFCH. The experiment in a line: Postemergence foliar-applied, direct seeded rice weeds (Example I). In kind it is in vivo, Leptochloa chinensis (L.) Nees. An excerpt: Seeds or nutlets of the desired test plant species were planted in a soil matrix prepared by mixing a loam or sandy loam soil (e.g., 28.6 percent silt, 18.8 percent clay, and 52.6 percent sand, with a pH of about 5.8 and an organic matter content of about 1.8 percent) and calcareous grit in an 80 to 20 ratio. The soil matrix was contained in plastic pots with a volume of 1 quart and a surface area of 83.6 cm^2. When required to ensure good germination and healthy plants, a fungicide treatment and/or other chemical or physical treatment was applied. The plants were grown for 8-22 days in a greenhouse with an approximate 14 h photoperiod which was maintained at about 29° C. during the day and 26° C. during the night. Nutrients (Peters Excel® 15-5-15 5-Ca 2-Mg and iron chelate) were applied in the irrigation solution as needed and water was added on a regular basis. Supplemental lighting was provided with overhead metal halide 1000-Watt lamps as necessary. The plants were employed for testing when they reached the first through fourth true leaf stage.
Treatments consisted of the acid or esters of 4-amino-3-chloro-5-fluoro-6-(4-chloro-2-fluoro-3-methoxy-phenyl)pyridine-2-carboxylic acid (Compound A), each formulated as an SC (suspension concentrate), and various herbicidal components alone and in combination. Forms of compound A were applied on an acid equivalent basis.
Other herbicidal components were applied on an acid equivalent basis and include acetolactate synthase (ALS)-inhibiting herbicides (imidazolinone chemical class) imazethapyr ammonium salt formulated as Newpath®, imazamox ammonium salt formulated as Beyond®, imazapic ammonium salt formulated as Plateau®, imazapyr isopropylamine salt formulated as Arsenal®, imazamethabenz-methyl (technical material) and imazaquin isopropylamine salt formulated as Scepter®/Imagine®.
Treatment requirements were calculated based upon the rates being tested, the concentration of active ingredient or acid equivalent in the formulation, and a 12 mL application volume at a rate of 187 L/ha.
For treatments comprised of formulated compounds, measured amounts of compounds were placed individually in 25 mL glass vials and diluted in a volume of 1.25% (v/v) Agri-Dex® crop oil concentrated to obtain 12× stock solutions. […] Application solutions were prepared by adding an appropriate amount of each stock solution (e.g., 1 mL) and diluted to the appropriate final concentrations with the addition of 10 mL of an aqueous mixture of 1.25% (v/v) crop oil concentrate so that the final spray solutions contained 1.25+/−0.05% (v/v) crop oil concentrate. […]
For treatments comprised of formulated and technical compounds, weighed amounts of the technical materials were placed individually in 25 mL glass vials and dissolved in a volume of 97:3 v/v acetone/DMSO to obtain 12× stock solutions, and measured amounts of the formulated compounds were placed individually in 25 mL glass vials and diluted in a volume of 1.5% (v/v) crop oil concentrate or water to obtain 12× stock solutions. […] Application solutions were prepared by adding an appropriate amount of each stock solution (e.g., 1 mL) and diluted to the appropriate final concentrations with the addition of an appropriate amount of an aqueous mixture of 1.5% (v/v) crop oil concentrate so that the final spray solutions contained 1.25% (v/v) crop oil concentrate. As required, additional water and/or 97:3 v/v acetone/DMSO was added to individual application solutions so that the final acetone and DMSO concentrations of the application solutions being compared were 8.1% and 0.25%, respectively.
All stock solutions and applications solutions were visually inspected for compound compatibility prior to application. […]

The next assay deals with ECHCG. The experiment in a line: In-water applied, transplanted paddy rice weeds (Example II). In kind it is in vivo, Echinochloa crusgalli (L.) Beauv. How it is done: Weed seeds or nutlets of the desired test plant species were planted in puddled soil (mud) prepared by mixing a shredded, non-sterilized mineral soil (50.5 percent silt, 25.5 percent clay, and 24 percent sand, with a pH of about 7.6 and an organic matter content of about 2.9 percent) and water at a 1:1 volumetric ratio. The prepared mud was dispensed in 365 mL aliquots into 16-ounce (oz.) non-perforated plastic pots with a surface area of 86.59 square centimeters (cm^2) leaving a headspace of 3 centimeters (cm) in each pot. Mud was allowed to dry overnight prior to planting or transplanting. Rice seeds were planted in Sun Gro MetroMix® 306 planting mixture, which typically has a pH of about 6.0 to about 6.8 and an organic matter content of about 30 percent, in plastic plug trays. Seedlings at the second or third leaf stage of growth were transplanted into 860 mL of mud contained in 32-oz. non-perforated plastic pots with a surface area of 86.59 cm^2 4 days prior to herbicide application. The paddy was created by filling the headspace of the pots with 2.5 to 3 cm of water. When required to ensure good germination and healthy plants, a fungicide treatment and/or other chemical or physical treatment was applied. The plants were grown for 4-22 days in a greenhouse with an approximate 14 h photoperiod which was maintained at about 29° C. during the day and about 26° C. during the night. Nutrients were added as Osmocote® (19:6:12, N:P:K+minor nutrients) at 2 g per 16-oz. pot and 4 g per 32-oz. pot. Water was added on a regular basis to maintain the paddy flood, and supplemental lighting was provided with overhead metal halide 1000-Watt lamps as necessary. The plants were employed for testing when they reached the first through fourth true leaf stage.
Treatments consisted of the acid or esters of 4-amino-3-chloro-5-fluoro-6-(4-chloro-2-fluoro-3-methoxy-phenyl)pyridine-2-carboxylic acid (compound A) each formulated as an SC and various herbicidal components alone and in combination. Forms of compound A were applied on an acid equivalent basis.
Other herbicidal components were applied on an acid equivalent basis and included the acetolactate synthase (ALS)-inhibiting imidazolinone herbicides imazethapyr ammonium salt formulated as Newpath®, imazamox ammonium salt formulated as Beyond®, imazapic ammonium salt formulated as Plateau®, imazapyr isopropylamine salt formulated as Arsenal®, imazamethabenz-methyl (technical material), and imazaquin isopropylamine salt formulated as Scepter®.
Treatment requirements for each compound or herbicidal component were calculated based upon the rates being tested, the concentration of active ingredient or acid equivalent in the formulation, an application volume of 2 mL per component per pot, and an application area of 86.59 cm^2 per pot.
For formulated compounds, a measured amount was placed in an individual 100 or 200 mL glass vial and was dissolved in a volume of 1.25% (v/v) Agri-Dex® crop oil concentrate to obtain application solutions.
For technical grade compounds, a weighed amount was placed in an individual 100 to 200 mL glass vial and was dissolved in a volume of acetone to obtain concentrated stock solutions. […] The concentrated stock solutions obtained were diluted with an equivalent volume of an aqueous mixture containing 2.5% (v/v) crop oil concentrate so that the final application solutions contained 1.25% (v/v) crop oil concentrate.
Applications were made by injecting with a pipetter appropriate amounts of the application solutions, individually and sequentially, into the aqueous layer of the paddy. Control plants were treated in the same manner with the solvent blank. Applications were made so that all treated plant material received the same concentrations of acetone and crop oil concentrate.
The treated plants and control plants were placed in a greenhouse as described above and water was added as needed to maintain a paddy flood. […]

Where [1] appears, read: Compound A Benzyl Ester 17.5 gae/ha.
Setting [2] is: Imazethapyr ammonium 8.75 gae/ha.

On to `COc1c(Cl)ccc(-c2nc(C(=O)O)c(Cl)c(N)c2F)c1F` [Compound A Acid, 4-amino-3-chloro-6-(4-chloro-2-fluoro-3-methoxyphenyl)-5-fluoropyridine-2-carboxylic acid], for which the entries for the “Visual Weed Control (%) - 25 DAA LEFCH Obs” value with LEFCH (Compound A Acid 4.38 gae/ha), in the assay with LEFCH (Compound A Acid 8.75 gae/ha) and in the assay with LEFCH (Compound A Acid 17.5 gae/ha) were 0%, 10% and 45%, respectively. Further, the “Visual Weed Control (%) - 20 DAA LEFCH Obs” value in the assay with LEFCH (Compound A Acid 19.4 gae/ha) amounted to 5%. The “Visual Weed Control (%) - 25 DAA ECHCG Obs” value with ECHCG (Compound A Acid 8.75 gae/ha), in the assay with ECHCG (Compound A Acid 17.5 gae/ha) and in the assay with ECHCG (Compound A Acid 35 gae/ha) was 0% in each case.
Regarding `Cc1cnc(C2=NC(C)(C(C)C)C(=O)N2)c(C(=O)O)c1.N` (racemic) [Imazapic ammonium, ammonium (±)-2-[4,5-dihydro-4-methyl-4-(1-methylethyl)-5-oxo-1H-imidazol-2-yl]-5-methyl-3-pyridinecarboxylic acid], the “Visual Weed Control (%) - 25 DAA LEFCH Obs” value with LEFCH (Imazapic ammonium 17.5 gae/ha) is 50%. For the same molecule, in the assay on LEFCH (Imazapic ammonium 35 gae/ha), the “Visual Weed Control (%) - 20 DAA LEFCH Obs” value was 85%. Besides, the “Visual Weed Control (%) - 25 DAA ECHCG Obs” value in the assay with ECHCG (Imazapic ammonium 8.75 gae/ha) and in the assay with ECHCG (Imazapic ammonium 17.5 gae/ha) was 20% each time.
With `COc1c(Cl)ccc(-c2nc(C(=O)OCc3ccccc3)c(Cl)c(N)c2F)c1F` [Compound A Benzyl Ester, benzyl ester of 4-amino-3-chloro-5-fluoro-6-(4-chloro-2-fluoro-3-methoxy-phenyl)pyridine-2-carboxylic acid], the “Visual Weed Control (%) - 25 DAA LEFCH Obs” value in the assay with LEFCH (Compound A Benzyl Ester 8.75 gae/ha) and in the assay with LEFCH (setting [1]) was 70% throughout. In addition, the “Visual Weed Control (%) - 25 DAA ECHCG Obs” value with ECHCG (setting [1]) amounted to 10%; in the assay on ECHCG (Compound A Benzyl Ester 35 gae/ha) it was 45%.
On to `CCc1cnc(C2=NC(C)(C(C)C)C(=O)N2)c(C(=O)O)c1.N` (racemic) [Imazethapyr ammonium, ammonium (±)-2-[4,5-dihydro-4-methyl-4-(1-methylethyl)-5-oxo-1H-imidazol-2-yl]-5-ethyl-3-pyridinecarboxylate], for which the “Visual Weed Control (%) - 25 DAA LEFCH Obs” value in the assay on LEFCH (setting [2]) worked out at 20%. Further, the “Visual Weed Control (%) - 25 DAA ECHCG Obs” value with ECHCG (setting [2]) is 0%; with ECHCG (Imazethapyr ammonium 17.5 gae/ha), 0%; in the assay with ECHCG (Imazethapyr ammonium 35 gae/ha), 50%.
Turning to `COCc1cnc(C2=NC(C)(C(C)C)C(=O)N2)c(C(=O)O)c1.N` (racemic) [Imazamox ammonium, ammonium (±)-2-[4,5-dihydro-4-methyl-4-(1-methylethyl)-5-oxo-1H-imidazol-2-yl]-5-(methoxymethyl)-3-pyridinecarboxylate], the “Visual Weed Control (%) - 25 DAA LEFCH Obs” value in the assay with LEFCH (Imazamox ammonium 11.2 gae/ha) is given as 20%. Moreover, the “Visual Weed Control (%) - 25 DAA ECHCG Obs” value with ECHCG (Imazamox ammonium 5.6 gae/ha) is 0%; in the assay on ECHCG (Imazamox ammonium 22.4 gae/ha), 25%.

For the origin of these results see patent US8906826B2, “Herbicidal compositions comprising 4-amino-3-chloro-5-fluoro-6-(4-chloro-2-fluoro-3-methoxyphenyl) pyridine-2-carboxylic acid or a derivative thereof and imidazolinones” (Dow AgroSciences, LLC, priority 2012, dated 2014).
